For data set [1], the system named is Giardia intestinalis. The experiment in a line: Antimicrobial activity against Giardia intestinalis IMSS:0696:1 incubated for 48 hrs followed by compound washout measured after 48 hrs. Type of data set: functional, organism-based. The settings on record: Giardia duodenalis, IMSS:0696:1, 48 h.
The subject of data set [2] is Leishmania amazonensis. In words: Antimicrobial activity against promastigote stage of Leishmania amazonensis IFLA/BR/67/PH-8 clinical isolate after 72 hrs by Neubauer chamber analysis. As to conditions: IFLA/BR/67/PH-8, 72 h. Type of data set: functional, organism-based.
Data set [3] in a line: Cytotoxicity against African green monkey Vero cells assessed as cell viability after 48 hrs by SRB assay. The data set is classed as cell-based. As to conditions: chlorocebus sabaeus.
Data set [4] relates to Trypanosoma cruzi. In words: Antimicrobial activity against epimastigote stage of Trypanosoma cruzi MHOM/MX/1994/Ninoa clinical isolate after 72 hrs by Neubauer chamber analysis. The data set is classed as functional, organism-based.
In data set [5] the test system is Trichomonas vaginalis. In words: Antimicrobial activity against Trichomonas vaginalis GT3 incubated for 48 hrs followed by compound washout measured after 48 hrs. The data set is classed as functional, organism-based. The settings on record: GT3, 48 h.
Data set [6] has as its system Giardia intestinalis. In words: Ratio of metronidazole IC50 to compound IC50 for Giardia intestinalis IMSS:0696:1. The data set is classed as functional, Giardia duodenalis.
Data set [7] is described as follows: Selectivity index, ratio of CC50 for African green monkey Vero cells to IC50 for Trichomonas vaginalis GT3. The data set is classed as functional.
Data set [8] can be described thus: Selectivity index, ratio of CC50 for African green monkey Vero cells to IC50 for Giardia intestinalis IMSS:0696:1. Type of data set: functional.
Data set [9] deals with Trichomonas vaginalis. The experiment in a line: Ratio of metronidazole IC50 to compound IC50 for Trichomonas vaginalis GT3. The data set is classed as functional.
Data set [10] concerns Trypanosoma cruzi. In words: Ratio of benznidazole IC50 to compound IC50 for epimastigote stage of Trypanosoma cruzi MHOM/MX/1994/Ninoa clinical isolate. The data set is classed as functional.
Data set [11] has as its system Leishmania amazonensis. In words: Ratio of pentamidine IC50 to compound IC50 for promastigote stage of Leishmania amazonensis IFLA/BR/67/PH-8 clinical isolate. The data set is classed as functional.

The text below walks through data of ChEMBL document CHEMBL3112462, “2-acylamino-5-nitro-1,3-thiazoles: preparation and in vitro bioevaluation against four neglected protozoan parasites” (Bioorg Med Chem, 2014).

What is called CC50 is the concentration that lowers cell viability or growth by half.

SMILES strings stand for the structures. Where only a bound is given, the exact number is not on record here.

Regarding `CCCCC(=O)Nc1ncc([N+](=O)[O-])s1`, the IC50 is 0.398 µM with Giardia intestinalis [1] (read-out: IC50); 0.398 µM in the data set on Giardia intestinalis [1] (read-out: pIC50 (converted)); greater than 50 µM in the data set on Leishmania amazonensis [2]; greater than 50 µM in the data set on Trypanosoma cruzi [4]; 0.305 µM in the data set with Trichomonas vaginalis [5] (read-out: IC50); 0.316 µM in the data set with Trichomonas vaginalis [5] (read-out: pIC50 (converted)). The CC50 at 48 h in [3] was greater than 1000 µM. The “Ratio IC50” value with Giardia intestinalis [6] came out at 11.

Turning to `O=C(Nc1ccccc1)Nc1ncc([N+](=O)[O-])s1`, the IC50 in the data set with Giardia intestinalis [1] (read-out: IC50) was 2.57 µM; in the data set on Giardia intestinalis [1] (read-out: pIC50 (converted)) it was 2.57 µM; with Leishmania amazonensis [2], 38.5 µM; with Trypanosoma cruzi [4], greater than 50 µM. For the same compound, the CC50 at 48 h in data set [3] is greater than 1000 µM.

For `O=C(Nc1ncc([N+](=O)[O-])s1)NC1CCCCC1`, the IC50 with Giardia intestinalis [1] (read-out: IC50) is 0.359 µM; with Giardia intestinalis [1] (read-out: pIC50 (converted)), 0.363 µM; with Leishmania amazonensis [2], greater than 50 µM; with Trypanosoma cruzi [4] it was greater than 50 µM; in the data set with Trichomonas vaginalis [5] (read-out: IC50), 1.65 µM; in the data set with Trichomonas vaginalis [5] (read-out: pIC50 (converted)), 2 µM. In addition, the CC50 at 48 h in data set [3] was greater than 1000 µM. Further, the “Ratio IC50” value with Giardia intestinalis [6] came to 11.

With `O=C(Nc1ccc(Cl)cc1)Nc1ncc([N+](=O)[O-])s1`, the IC50 is 0.577 µM with Giardia intestinalis [1] (read-out: IC50); 0.589 µM in the data set on Giardia intestinalis [1] (read-out: pIC50 (converted)); 37.2 µM in the data set on Leishmania amazonensis [2]; greater than 50 µM with Trypanosoma cruzi [4]; 1.03 µM in the data set with Trichomonas vaginalis [5] (read-out: IC50); 1.26 µM with Trichomonas vaginalis [5] (read-out: pIC50 (converted)). For the same compound, in [3], the CC50 at 48 h was greater than 1000 µM. In addition, in the data set with Giardia intestinalis [6], the “Ratio IC50” value stood at 11.

Turning to `O=C(Nc1ccc(F)cc1)Nc1ncc([N+](=O)[O-])s1`, the IC50 is 7.83 µM in the data set on Giardia intestinalis [1] (read-out: IC50); 7.94 µM in the data set with Giardia intestinalis [1] (read-out: pIC50 (converted)); greater than 50 µM in the data set with Leishmania amazonensis [2]; greater than 50 µM in the data set with Trypanosoma cruzi [4]; 1.23 µM in the data set on Trichomonas vaginalis [5] (read-out: IC50); 1.26 µM in the data set with Trichomonas vaginalis [5] (read-out: pIC50 (converted)). Further, the CC50 at 48 h in data set [3] is greater than 1000 µM.

On to `COc1ccc(NC(=O)Nc2ncc([N+](=O)[O-])s2)cc1`, for which the IC50 in the data set on Giardia intestinalis [1] (read-out: IC50) was 29.1 µM; in the data set with Giardia intestinalis [1] (read-out: pIC50 (converted)), 29.5 µM; in the data set with Leishmania amazonensis [2] it was 32.2 µM; in the data set on Trypanosoma cruzi [4] it was greater than 50 µM; in the data set on Trichomonas vaginalis [5] (read-out: IC50), 1.3 µM; in the data set with Trichomonas vaginalis [5] (read-out: pIC50 (converted)), 1.58 µM.

For `CCOc1ccc(NC(=O)Nc2ncc([N+](=O)[O-])s2)cc1`, the IC50 in the data set with Giardia intestinalis [1] (read-out: IC50) is 3.75 µM; in the data set on Giardia intestinalis [1] (read-out: pIC50 (converted)), 3.8 µM; with Leishmania amazonensis [2] it was greater than 50 µM; in the data set with Trypanosoma cruzi [4], greater than 50 µM; in the data set with Trichomonas vaginalis [5] (read-out: IC50), 0.282 µM; with Trichomonas vaginalis [5] (read-out: pIC50 (converted)) it was 0.316 µM. The CC50 at 48 h in [3] is greater than 1000 µM.

Take `CCCCOc1ccc(NC(=O)Nc2ncc([N+](=O)[O-])s2)cc1`: the IC50 is 1.8 µM in the data set on Giardia intestinalis [1] (read-out: IC50); 1.82 µM in the data set on Giardia intestinalis [1] (read-out: pIC50 (converted)); greater than 50 µM in the data set on Leishmania amazonensis [2]; greater than 50 µM with Trypanosoma cruzi [4]; 0.387 µM in the data set on Trichomonas vaginalis [5] (read-out: IC50); 0.398 µM in the data set on Trichomonas vaginalis [5] (read-out: pIC50 (converted)). Moreover, in [3], the CC50 at 48 h is 58 µM.

On to `O=C(Nc1ccc([N+](=O)[O-])cc1)Nc1ncc([N+](=O)[O-])s1`, for which the IC50 in the data set with Giardia intestinalis [1] (read-out: IC50) was 15.3 µM; in the data set with Giardia intestinalis [1] (read-out: pIC50 (converted)), 15.5 µM; with Leishmania amazonensis [2], greater than 50 µM; in the data set with Trypanosoma cruzi [4], greater than 50 µM; in the data set on Trichomonas vaginalis [5] (read-out: IC50) it was 0.958 µM; with Trichomonas vaginalis [5] (read-out: pIC50 (converted)), 1 µM.

Turning to `CCCCCCCCCCCCCCCC(=O)Nc1ncc([N+](=O)[O-])s1`, the IC50 in the data set with Giardia intestinalis [1] (read-out: IC50) is 1.63 µM; with Giardia intestinalis [1] (read-out: pIC50 (converted)), 1.66 µM; in the data set on Leishmania amazonensis [2], greater than 50 µM; in the data set with Trypanosoma cruzi [4], greater than 50 µM; in the data set on Trichomonas vaginalis [5] (read-out: IC50), 2.58 µM; in the data set on Trichomonas vaginalis [5] (read-out: pIC50 (converted)) it was 3.16 µM. The CC50 at 48 h in data set [3] is greater than 1000 µM.

On to `COC(=O)Nc1ncc([N+](=O)[O-])s1`, for which the IC50 in the data set with Giardia intestinalis [1] (read-out: IC50) was 0.01 µM; with Giardia intestinalis [1] (read-out: pIC50 (converted)), 0.01 µM; with Leishmania amazonensis [2], greater than 50 µM; in the data set on Trypanosoma cruzi [4], greater than 50 µM; with Trichomonas vaginalis [5] (read-out: IC50) it was 0.081 µM; in the data set with Trichomonas vaginalis [5] (read-out: pIC50 (converted)), 0.1 µM. Besides, the “Ratio CC50/IC50” value in data set [7] was determined as 30407; in data set [8], 246300. In [3], the CC50 at 48 h amounted to 2460 µM. Besides, the “Ratio IC50” value came out at 4 in the data set on Trichomonas vaginalis [9] and 536 in the data set with Giardia intestinalis [6].

With `CCOC(=O)C(=O)Nc1ncc([N+](=O)[O-])s1`, the IC50 is 6.41 µM in the data set on Giardia intestinalis [1] (read-out: IC50); 6.46 µM in the data set on Giardia intestinalis [1] (read-out: pIC50 (converted)); greater than 50 µM with Leishmania amazonensis [2]; greater than 50 µM in the data set on Trypanosoma cruzi [4]; 0.01 µM with Trichomonas vaginalis [5] (read-out: IC50); 0.01 µM in the data set with Trichomonas vaginalis [5] (read-out: pIC50 (converted)). Besides, the results for the “Ratio CC50/IC50” value in data set [7] and in data set [8] were 141500 and 220, respectively. The CC50 at 48 h in data set [3] came out at 1420 µM. Moreover, the “Ratio IC50” value in the data set with Trichomonas vaginalis [9] turned out to be 29.

As for `Nc1ncc([N+](=O)[O-])s1`, the IC50 was 29.6 µM in the data set with Giardia intestinalis [1] (read-out: IC50); 27.5 µM in the data set on Giardia intestinalis [1] (read-out: pIC50 (converted)); greater than 50 µM with Leishmania amazonensis [2]; greater than 50 µM in the data set with Trypanosoma cruzi [4]; 52.9 µM in the data set on Trichomonas vaginalis [5] (read-out: IC50); 63.1 µM in the data set on Trichomonas vaginalis [5] (read-out: pIC50 (converted)). For the same compound, the CC50 at 48 h in data set [3] is 441 µM.

For the compound `O=C(Cn1ccnc1[N+](=O)[O-])NCc1ccccc1` [BENZNIDAZOLE], the IC50 with Leishmania amazonensis [2] is greater than 50 µM. Also, the CC50 at 48 h in data set [3] turned out to be 14 µM.

Regarding `Cc1ncc([N+](=O)[O-])n1CCO` [METRONIDAZOLE], the IC50 was greater than 50 µM in the data set with Leishmania amazonensis [2], greater than 50 µM in the data set on Trypanosoma cruzi [4] and 0.316 µM with Trichomonas vaginalis [5] (read-out: pIC50 (converted)). In data set [3], the CC50 at 48 h amounted to 387 µM.

As for `CC(=O)Oc1ccccc1C(=O)Nc1ncc([N+](=O)[O-])s1` [NITAZOXANIDE], the IC50 in the data set on Giardia intestinalis [1] (read-out: pIC50 (converted)) was 1.23 µM; in the data set with Leishmania amazonensis [2], 7.23 µM; in the data set with Trichomonas vaginalis [5] (read-out: pIC50 (converted)) it was 0.0794 µM. The “Ratio IC50” value in the data set on Trypanosoma cruzi [10] and in the data set on Leishmania amazonensis [11] was 2 each time. The CC50 at 48 h in data set [3] was found to be 833 µM.

As to `CC(=O)Nc1ncc([N+](=O)[O-])s1` [NITHIAMIDE], the IC50 was 0.49 µM in the data set on Giardia intestinalis [1] (read-out: IC50); 0.501 µM with Giardia intestinalis [1] (read-out: pIC50 (converted)); greater than 50 µM in the data set on Leishmania amazonensis [2]; greater than 50 µM in the data set with Trypanosoma cruzi [4]; 0.022 µM in the data set with Trichomonas vaginalis [5] (read-out: IC50); 0.0251 µM with Trichomonas vaginalis [5] (read-out: pIC50 (converted)). The CC50 at 48 h in data set [3] is greater than 1000 µM. Besides, the “Ratio IC50” value in the data set with Trichomonas vaginalis [9] was 13; in the data set on Giardia intestinalis [6], 11.

For the compound `N=C(N)c1ccc(OCCCCCOc2ccc(C(=N)N)cc2)cc1` [PENTAMIDINE], the values for the IC50 with Leishmania amazonensis [2] and in the data set on Trypanosoma cruzi [4] were 14.3 µM and greater than 50 µM, respectively. Moreover, the CC50 at 48 h in [3] came to 47 µM.
